Source: article PMC7057948, “A genome-wide approach for identification and characterisation of metabolite-inducible systems” (Nature Communications, 2020)
Counter-ions that a name gives are not always drawn. Values belong to the molecule of their own block, whether it stands above or below them.

Tests used:
PhgR = test system: T1, PhgR; assay: RFP reporter dose-response in C. necator H16, Hill fit; assay type: cell-based, Cupriavidus necator; settings: inducer concentration for half-maximal activation; extracellular inducer, minimal medium, 30 °C, 80 min; whole cells with chromosomal regulator copy; read-out: Km^b
T1 construct: native full-length gene, divergent to operon starting at H16_RS05530; reporter plasmid pEH155 (plasmid assigned by list order)

BenM [1] = assay: cells; design: species or system Cupriavidus necator H16; RFP reporter induction by transcription factor biosensor, fluorescence normalised to cell density, relative to primary effector; settings: 6 h; relative to primary effector, C. necator, MM; read-out: % activation
Description: (§1) To screen the 441 combinations of inducer and biosensor for cross-reactivity, we employed an automated platform (see Methods section). Strains of C. necator harbouring the inducible systems were grown in MM and transferred to a 96-well microtiter plate format. After the inducers had been extracellularly added, cells were cultured for 6 h before RFP fluorescence and cell density were measured. […] The remaining six inducible systems were activated by one or more metabolites other than their cognate inducers. This cross-reactivity may be the result of either structural resemblance, a metabolic relationship or a combination thereof. For example, L-phenylalanine is converted into L-tyrosine by the phenylalanine 4-monooxygenase PhhA (H16_RS18365). Therefore, activation of the L-tyrosine-inducible system by L-phenylalanine is more likely to be due to biological conversion of the added compound into the primary effector rather than direct interaction of L-phenylalanine with HpdA. However, since the difference between the two molecules lies in a singly hydroxyl-group, an induction by structural resemblance cannot be entirely ruled out. The same applies to phenylglyoxylate that activated the benzoate-inducible system. Phenylglyoxylate is converted by C. necator into benzoate via a two-step reaction with benzaldehyde as intermediate compound. During the first reaction, carbon dioxide is generated that may also explain induction of the formate-inducible system by the structurally dissimilar phenylglyoxylate. Since carbon dioxide can subsequently be converted into formate, it is rational to postulate that the FdsR/PH16_RS03165-inducible system is activated in this case by its primary inducer. In addition to phenylglyoxylate, the benzoate-inducible system was activated by extracellular supplementation with cyclohexanecarboxylate and cumate. Cyclohexanecarboxylate shares both a structural resemblance to benzoate and downstream  Fig. 6 Orthogonality of inducible systems. a Cross-reactivity of a set of 21 inducible systems and their corresponding primary inducers. The heat map illustrates induction of reporter gene expression in the presence of the metabolite (in %) relative to the induction mediated by the corresponding primary effector. Measurements were taken 6 h after supplementation with inducer at a final concentration of 5 mM. Data are mean, n = 4. Source data are provided as a Source Data file. b Fluorescence output of individual cells of C. necator carrying pEH263 measured by flow cytometry. The vector pEH263 contains the 3,4-dihydroxybenzoate- and [compound left out]-inducible systems controlling expression of rfp and egfp, respectively. Fluorescence was determined in the absence of inducer (orange), in the presence of 3,4-dihydroxybenzoate (blue), [compound left out] (green), and both 3,4-dihydroxybenzoate and [compound left out] (purple). Effector concentrations correspond to their respective Km’s and fluorescence was measured 2 h after inducer addition.

FdsR [2] = assay: cells; design: species or system Cupriavidus necator H16; RFP reporter induction by transcription factor biosensor, fluorescence normalised to cell density, relative to primary effector; settings: 6 h; relative to primary effector, C. necator, MM; read-out: % activation
Description: as §1

BenM [3] = biological target: T2, BenM (Cupriavidus necator, UniProt Q0KAA5); assay: cell-based; design: RFP reporter induction by transcription factor biosensor, single time-point fluorescence in LB, relative to primary effector; settings: Escherichia coli TOP10; relative to primary effector, E. coli, LB; read-out: % activation
T2 construct: native full-length gene, divergent to operon starting at H16_RS09790; reporter plasmid pEH148 (plasmid assigned by list order)
T2 sequence (Q0KAA5 1-305): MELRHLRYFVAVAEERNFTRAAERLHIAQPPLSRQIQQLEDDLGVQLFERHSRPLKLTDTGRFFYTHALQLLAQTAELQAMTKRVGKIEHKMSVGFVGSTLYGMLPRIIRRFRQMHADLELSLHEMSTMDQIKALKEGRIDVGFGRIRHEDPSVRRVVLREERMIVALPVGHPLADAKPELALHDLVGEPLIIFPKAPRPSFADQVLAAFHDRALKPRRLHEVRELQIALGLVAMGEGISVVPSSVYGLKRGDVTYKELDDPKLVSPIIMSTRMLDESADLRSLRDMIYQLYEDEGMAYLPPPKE
Excerpt: (§2) TRs often recognise molecules that are structurally similar to their primary effectors. For example, isopropyl β-D-1-thiogalactopyranoside is a commonly used structural analogue of allolactose, employed to control the expression of genes regulated by LacI. Here, the TR’s specificity was investigated to identify previously uncharacterised ligand–TR interactions and consequently extend the biosensor application to the detection of structurally similar or metabolically related compounds. To do so, the library of 21 native and heterologous inducible systems was screened against 46 compounds using an integrated robotic platform, as described in the previous section. […] Similarly to the former orthogonality screen (Fig. 6a), it should be noted that activation of reporter gene expression by the extracellularly added compounds likely indicates a structural resemblance to the primary ligand, a metabolic relationship or a combination thereof. To shed light on their cause of system activation, cultures of E. coli carrying the functional formate-, [compound left out]-, benzoate-, 3,4-dihydroxybenzoate-, acetoin- and β-alanine-inducible systems, active in this host organism, were evaluated for the same cross-reactivity (Supplementary Table 5).  Fig. 3 C. necator native systems mediate controllable gene expression in E. coli and P. putida. Single time-point fluorescence measurements of a, b E. coli and c, d P. putida carrying the C. necator-inducible gene expression systems composed of TR and promoter a, c or ‘promoter only’ version b, d. The plasmids harbouring the individual system– or promoter–reporter gene constructs are indicated. RFP fluorescence output was determined in the absence of inducer (light purple and light blue) and 6 h after extracellular supplementation with the corresponding primary effector to a final concentration of 5 mM (dark purple and dark blue). Data are mean ± SD, n = 3, *p < 0.05, **p < 0.01, ***p ≤ 0.001, ****p ≤ 0.0001, unpaired two-tailed t-test. Source data are provided as a Source Data file. All strains used in this study are listed in Supplementary Table 7. E. coli TOP10 (Life Technologies) was used for cloning and plasmid propagation. For single time-point fluorescence measurements and flow cytometric analyses, bacterial strains were propagated in Luria-Bertani (LB) medium. To determine the dose–responses and to evaluate inducer TR cross-reactivity, C. necator was cultivated in MM containing 1 g/L NH4Cl, 9 g/L Na2HPO4·12H2O, 1.5 g/L KH2PO4, 0.2 g/L MgSO4·7H2O, 0.02 g/L CaCl2·2H2O and 0.0012 g/L (NH4)5[Fe(C6H4O7)2] with 1 mL/L trace element solution SL7 (1.3 mL/L 25% (w/v) HCl, 0.07 g/L ZnCl2, 0.1 g/L MnCl2·4H2O, 0.062 g/L H3BO3, 0.190 g/L CoCl2·6H2O, 0.017 g/L CuCl2·2H2O, 0.024 g/L NiCl2·6H2O and 0.036 g/L Na2MoO4·2H2O) supplemented with 0.4% (w/v) sodium gluconate. If required, antibiotics were added to the growth medium at the following concentrations: 12.5 µg/mL tetracycline or 25 µg/mL chloramphenicol for E. coli, 50 µg/mL chloramphenicol for C. necator and 25 µg/mL tetracycline for P. putida. For solid media preparation, 15 g/L agar was added.

FdsR [4] = biological target: T3, FdsR (Cupriavidus necator, UniProt Q0KDY4); assay: cell-based; design: RFP reporter induction by transcription factor biosensor, single time-point fluorescence in LB, relative to primary effector; settings: Escherichia coli TOP10; relative to primary effector, E. coli, LB; read-out: % activation
T3 construct: native full-length gene, divergent to operon starting at H16_RS03165; reporter plasmid pEH134 (plasmid assigned by list order)
T3 sequence (Q0KDY4 1-364): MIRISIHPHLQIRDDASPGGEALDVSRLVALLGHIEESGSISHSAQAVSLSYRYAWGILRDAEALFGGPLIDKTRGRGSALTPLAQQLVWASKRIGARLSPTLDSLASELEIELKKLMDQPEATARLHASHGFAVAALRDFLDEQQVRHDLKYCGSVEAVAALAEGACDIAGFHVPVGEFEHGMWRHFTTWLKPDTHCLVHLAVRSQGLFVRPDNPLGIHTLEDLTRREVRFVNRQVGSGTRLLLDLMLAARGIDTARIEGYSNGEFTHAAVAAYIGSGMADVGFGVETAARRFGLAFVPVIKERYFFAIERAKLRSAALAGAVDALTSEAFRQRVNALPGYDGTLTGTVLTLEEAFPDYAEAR
Excerpt: as §2

NahR = biological target: T4, NahR (Cupriavidus necator, UniProt G0EUZ9); assay: RFP reporter dose-response in C. necator H16, Hill fit; assay type: cell-based; settings: read-out: Km^b
T4 construct: native full-length gene, divergent to operon starting at H16_RS08125; reporter plasmid pEH042 (plasmid assigned by list order); not the P. putida NahR
T4 sequence (G0EUZ9 1-300): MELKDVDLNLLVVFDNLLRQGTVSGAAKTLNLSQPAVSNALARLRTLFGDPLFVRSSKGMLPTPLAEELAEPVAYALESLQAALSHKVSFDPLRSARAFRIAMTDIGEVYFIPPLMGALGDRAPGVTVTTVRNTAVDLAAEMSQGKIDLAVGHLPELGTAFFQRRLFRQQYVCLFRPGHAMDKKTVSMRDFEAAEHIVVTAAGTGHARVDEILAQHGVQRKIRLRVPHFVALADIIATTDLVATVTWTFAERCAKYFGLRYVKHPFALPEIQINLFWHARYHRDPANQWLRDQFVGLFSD

BenM [5] = biological target: T2, BenM; assay: as above; assay type: cell-based; settings: read-out: Km^b
Description: RFP reporter dose-response in C. necator H16, Hill fit on BenM

TtdR = test system: T5, TtdR; assay: as above; assay type: cell-based, Cupriavidus necator; settings: inducer concentration for half-maximal activation; extracellular inducer, minimal medium, 30 °C, 80 min; whole cells with chromosomal regulator copy; read-out: Km^b
T5 construct: native full-length gene, divergent to operon starting at H16_RS10665; reporter plasmid pEH083 (plasmid assigned by list order)
Description: RFP reporter dose-response in C. necator H16, Hill fit on TtdR

EC50 (PhgR): 595 ± 133 µM
activity at 5000 µM (BenM [3]): 0.19%
activity at 5000 µM (FdsR [4]): 0%
SMILES: O=C(O)C(=O)c1ccccc1 [compound 4, Phenylglyoxylate]
activity at 5000 µM (BenM [1]): 17%
activity at 5000 µM (FdsR [2]): 52%

SMILES: O=C(O)c1ccccc1O [compound 5, Salicylate]
EC50 (NahR): 2.12 ± 0.49 µM

EC50 (BenM [5]): 12.6 ± 0.8 µM
SMILES: O=C(O)c1ccccc1 [compound 6, Benzoate]

EC50 (TtdR): 61500 ± 22900 µM
SMILES: O=C(O)C(O)C(O)C(=O)O (centres unmarked) [compound 7, Tartrate]
